US20250051355A1, “COMPOUNDS, COMPOSITIONS, AND METHODS” (ACONCAGUA BIO, INC., priority 2023, published 2025)

What was measured:
[1] = biological target: human calcitonin receptor (CTR) and RAMP3 (AMY3) (Homo sapiens, UniProt O60896+P30988); experiment: Amylin Receptor cAMP Assay II; assay type: cell-based; conditions: COS-7/AMY3 cells, cAMP dynamic 2 kit, read-out: Amylin Receptor cAMP Stimulation Activity: EC50
From the text: Amylin Receptor cAMPAssay II
AMYRs are heterodimers of the class B calcitonin (CT) G-protein-coupled receptor (CTR) and receptor activity-modifying proteins (RAMPs). All three RAMPs can interact with the CTR and form AMY1, AMY2, AMY3 with RAMP1, RAMP2 and RAMP3, respectively. Like other class B1 GPCRs, the CT receptor family is canonically coupled to Gs-mediated cAMP production, and measurement of cAMP accumulation has been the primary assay used to determine peptide selectivity and potency.
(§1) To optimize functional activity directed toward Gas coupling, COS-7 cells were stably transfected with human calcitonin receptor (CTR) and RAMP3, simultaneously. 100×concentration of compound working solutions were prepared with 4-fold serial dilution in 384-well Echo LDV plate (Labcyte, Cat #LP-0200-BC). 200 nL/well 100×concentration of compound working solutions were moved to 384-well white microplate (Perkin Elmer, Cat #6007680) using Labcyte ECHO550. […] cells/mL COS-7/AMY3 cell suspensions prepared with assay buffer [HBSS containing 20 mM HEPES (Gibco, Cat #15630-080), 0.5 mM IBMX (Sigma, Cat #15879) and 0.1% Casein (Sigma, Cat #C4765)], 20 μL cell suspensions were added to each well of previous generated assay plate which already contains 200 nL compound at 100×concentration using ThermoFisher Multidrop Combi (2000 cells/well). Seal the plate and incubate at 37° C. with 5% CO2 for 30 min.
(§2) After incubation, the cAMP assay signal was generated using cAMP dynamic 2 kit (Revvity, Cat #62AM4PEC). 10 μL cAMP-d2 working solution was added to each well, followed by 10 μL Anti-cAMP antibody-cryptate working solution which was added to each well using CERTUS FLEX LIQUID DISPENSER The samples were then incubated at room temperature for 1 hour protected from light. the fluorescence was read at 665 and 615 nm with Reader PerkinElmer EnVision 2105.

[2] = biological target: T1, human calcitonin receptor (CTR) (Homo sapiens, UniProt P30988); experiment: Calcitonin receptor (CTR) cAMP Assay; assay type: cell-based; conditions: COS7-human CTR Clone #2 cells, cAMP dynamic 2 kit; read-out: Calcitonin Receptor cAMP Stimulation Activity: EC50
T1 construct: expressed in transfected cells; host or cells: COS-7 (COS7-human CTR Clone #2)
T1 sequence (P30988 25-474): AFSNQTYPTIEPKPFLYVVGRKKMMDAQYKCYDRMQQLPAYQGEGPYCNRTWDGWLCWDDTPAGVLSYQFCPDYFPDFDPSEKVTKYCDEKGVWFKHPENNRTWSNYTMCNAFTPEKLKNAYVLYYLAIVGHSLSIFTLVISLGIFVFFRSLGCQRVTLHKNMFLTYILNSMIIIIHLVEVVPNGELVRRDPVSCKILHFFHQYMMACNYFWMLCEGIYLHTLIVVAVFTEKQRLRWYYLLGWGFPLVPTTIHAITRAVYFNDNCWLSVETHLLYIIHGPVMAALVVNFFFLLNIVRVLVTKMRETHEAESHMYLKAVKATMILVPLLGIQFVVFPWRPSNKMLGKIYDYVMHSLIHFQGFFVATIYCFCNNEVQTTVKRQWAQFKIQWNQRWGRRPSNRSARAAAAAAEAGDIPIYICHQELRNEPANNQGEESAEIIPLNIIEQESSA
From the text: Calcitonin receptor (CTR) cAMPAssay
The calcitonin receptor (CTR) belongs to the subfamily of GPCRs known as the secretin or ‘B’ family of GPCRs. Like other class B1 GPCRs, the CT receptor family is canonically coupled to Gs-mediated cAMP production, and measurement of cAMP accumulation has been the primary assay used to determine peptide selectivity and potency.
as §1, with “to create COS7-human CTR Clone #2 stable cell line. 100× concentration” for “and RAMP3, simultaneously. 100×concentration”, “COS7-human CTR Clone #2” for “COS-7/AMY3”
as §2, with “#62AM4PEC). […] cAMP-d2 working” for “#62AM4PEC). 10 μL cAMP-d2 working”

Sequence of human calcitonin receptor (CTR) and RAMP3 (AMY3) (O60896 24-148, one chain of several): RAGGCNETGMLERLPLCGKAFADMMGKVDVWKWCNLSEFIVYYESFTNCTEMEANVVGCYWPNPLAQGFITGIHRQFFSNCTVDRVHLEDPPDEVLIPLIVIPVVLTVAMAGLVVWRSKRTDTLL

Which results are given for `Cc1nnc(-c2c(CCC3CCOCC3)nc3c(c2-c2cc4ncnc(N[C@@H]5CCc6ncccc65)c4s2)S(=O)(=O)CC3C2CC2)o1` (stereo partly drawn) [Compound 103, N—(R)-4-aza-1-indanyl(2-(3-cyclopropyl-6-(5-methyl-1,3,4-oxadiazol-2-yl)-1,1-dioxo-5-[2-(tetrahydro-2H-pyran-4-yl)ethyl]-1λ^6-thia-4-aza-7-indanyl}-1-thia-4,6-diaza-7-indenyl)amine]?
EC50 [1]: 1190 nM; EC50 [2]: 45.9 nM

Which results are given for `Cc1nnc(-c2c(CCC3CCOCC3)nc3c(c2-c2ccc4c(c2)oc(=O)n4Cc2ccc(C#N)c(F)c2)C(=O)N2CCOC[C@@H]32)o1` [Compound 104, 4-[(6-((4aR)-7-(5-methyl-1,3,4-oxadiazol-2-yl)-9-oxo-6-[2-(tetrahydro-2H-pyran-4-yl)ethyl]-1,2,4,4a-tetrahydro-9H-3-oxa-5,9a-diazafluoren-8-yl}-2-oxo-1,3-benzoxazol-3-yl)methyl]-2-fluorobenzonitrile]?
EC50 [1]: 42.4 nM; EC50 [2]: 1.25 nM

With `Cc1nnc(-c2c(CCC3CCOCC3)nc3c(c2-c2ccc4c(cnn4Cc4ccc(C#N)c(F)c4)c2)C(=O)N2CCOC[C@@H]32)o1` [Compound 105, 4-[(5-((4aR)-7-(5-methyl-1,3,4-oxadiazol-2-yl)-9-oxo-6-[2-(tetrahydro-2H-pyran-4-yl)ethyl]-1,2,4,4a-tetrahydro-9H-3-oxa-5,9a-diazafluoren-8-yl}-1H-indazol-1-yl)methyl]-2-fluorobenzonitrile] as the compound, how does the EC50 [1] read?
The EC50 was 385 nM.

What about the EC50 [2] of the same compound?
Its EC50 is 9.56 nM.

With `Cc1nnc(-c2c(CCC3CCOCC3)nc3c(c2C2CCN(C(=O)Cc4ccc(F)c(F)c4)CC2)S(=O)(=O)CC3C(C)C)o1` (centres unmarked) [Compound 106, 7-{1-[2-(3,4-difluorophenyl)acetyl]-4-piperidyl}-3-isopropyl-6-(5-methyl-1,3,4-oadiazol-2-yl)-5-[2-(tetrahydro-2H-pyran-4-yl)ethyl]-1λ^6-thia-4-aza-1,1-indandione] as the compound, how does the EC50 [1] read?
Its EC50 is greater than 100 nM.

And the EC50 [2]?
The EC50 was 3230 nM.

What does the source list for `Cc1nnc(-c2c(CCC3CCOCC3)nc3c(c2C2CCN(C(=O)Cc4ccc(F)c(F)c4)C2)S(=O)(=O)CC3C(C)C)o1` (centres unmarked) [Compound 107, 7-{1-[2-(3,4-difluorophenyl)acetyl]-3-pyrrolidinyl}-3-isopropyl-6-(5-methyl-1,3,4-oxadiazol-2-yl)-5-[2-(tetrahydro-2H-pyran-4-yl)ethyl]-1D′-thia-4-aza-1,1-indandione]?
EC50 [1]: > 100 nM; EC50 [2]: 6580 nM

Which results are given for `Cc1nnc(-c2c(CCC3CCOC(C)(C)C3)nc3c(c2-c2cc4ncnc(N[C@@H]5CCc6ncccc65)c4s2)S(=O)(=O)CC3C(C)C)o1` (stereo partly drawn) [Compound 108, N—(R)-4-aza-1-indanyl(2-(5-[2-(2,2-dimethyltetrahydro-2H-pyran-4-yl)ethyl]-3-isopropyl-6-(5-methyl-1,3,4-oxadiazol-2-yl)-1,1-dioxo-1λ^6-thia-4-aza-7-indanyl}-1-thia-4,6-diaza-7-indenyl)amine]?
EC50 [1]: 462 nM; EC50 [2]: 42.1 nM

Which EC50 [1] does the source give for `Cc1nnc(-c2c(CCC3CCOCC3)nc3c(c2-c2ccc4c(c2)oc(=O)n4Cc2ccc(C#N)c(F)c2)S(=O)(=O)CC3C(C)C)o1` (centres unmarked) [Compound 109, 2-fluoro-4-[(6-(3-isopropyl-6-(5-methyl-1,3,4-oxadiazol-2-yl)-1,1-dioxo-5-[2-(tetrahydro-2H-pyran-4-yl)ethyl]-1λ^6-thia-4-aza-7-indanyl}-2-oxo-1,3-benzoxazol-3-yl)methyl]benzonitrile] here?
Its EC50 is 64.8 nM.

And the EC50 [2]?
Its EC50 is 1.51 nM.

`Cc1nnc(-c2c(CCC3CCOCC3)nc3c(c2-c2ccc4c(ccn4C(C)c4ccc(C#N)c(F)c4)c2)C(=O)N2CCOC[C@@H]32)o1` (stereo partly drawn) [Compound 110, 4-[1-(5-((4aR)-7-(5-methyl-1,3,4-oxadiazol-2-yl)-9-oxo-6-[2-(tetrahydro-2H-pyran-4-yl)ethyl]-1,2,4,4a-tetrahydro-9H-3-oxa-5,9a-diazafluoren-8-yl}-1-indolyl)ethyl]-2-fluorobenzonitrile] was tested. Which EC50 [1] did it give?
Its EC50 is 62.4 nM.

And the EC50 [2]?
The EC50 was 6.16 nM.

`Cc1nnc(-c2c(CCC3CCOCC3)nc3c(c2-c2ccc4c(cnn4C(C)c4ccc(C#N)c(F)c4)c2)C(=O)N2CCOC[C@@H]32)o1` (stereo partly drawn) [Compound 111, 4-[1-(5-((4aR)-7-(5-methyl-1,3,4-oxadiazol-2-yl)-9-oxo-6-[2-(tetrahydro-2H-pyran-4-yl)ethyl]-1,2,4,4a-tetrahydro-9H-3-oxa-5,9a-diazafluoren-8-yl}-1H-indazol-1-yl)ethyl]-2-fluorobenzonitrile] was tested. Which EC50 [1] did it give?
The EC50 was 155 nM.

What about the EC50 [2] of the same compound?
Its EC50 is 11.3 nM.

Which EC50 [1] does the source give for `Cc1nnc(-c2c(CCC3CCOC(C)(C)C3)nc3c(c2-c2ccc4c(c2)oc(=O)n4Cc2ccc(C#N)c(F)c2)C(=O)N2CCOC[C@@H]32)o1` (stereo partly drawn) [Compound 112, 4-[(6-((4aR,9aR)-6-[2-(2,2-dimethyltetrahydro-2H-pyran-4-yl)ethyl]-7-(5-methyl-1,3,4-oxadiazol-2-yl)-9-oxo-1,2,4,4a-tetrahydro-9H-3-oxa-5,9a-diazafluoren-8-yl}-2-oxo-1,3-benzoxazol-3-yl)methyl]-2-fluorobenzonitrile] here?
The EC50 was 124 nM.

What about the EC50 [2] of the same compound?
The EC50 was 5.3 nM.

What does the source list for `Cc1nnc(-c2c(CCC3CCOCC3)nc3c(c2-c2cc4ccnc(N[C@@H]5CCc6ncccc65)c4s2)c(=O)n2n3CCC2)o1` [Compound 113, 9-{7-[(R)-4-aza-1-indanylamino]-1-thia-6-aza-2-indenyl}-10-(5-methyl-1,3,4-oxadiazol-2-yl)-11-[2-(tetrahydro-2H-pyran-4-yl)ethyl]-2,6,12-triazatricyclo[6.4.0.0^2,6]dodeca-1(12),8,10-trien-7-one]?
EC50 [1]: 1080 nM; EC50 [2]: 95.6 nM

`Cc1nnc(-c2c(CCC3CCOCC3)nc3c(c2-c2ccc4c(c2)oc(=O)n4C(C)c2ccc(C#N)c(F)c2)c(=O)n2n3CCC2)o1` (centres unmarked) [Compound 114, 2-fluoro-4-[1-(6-(10-(5-methyl-1,3,4-oxadiazol-2-yl)-7-oxo-11-[2-(tetrahydro-2H-pyran-4-yl)ethyl]-2,6,12-triazatricyclo[6.4.0.0^2,6]dodeca-1(12),8,10-trien-9-yl}-2-oxo-1,3-benzoxazol-3-yl)ethyl]benzonitrile] was tested. Which EC50 [1] did it give?
Its EC50 is 135 nM.

What about the EC50 [2] of the same compound?
The EC50 was 4.15 nM.

Which results are given for `Cc1nnc(-c2c(CCC3C4COCC34)nc3c(c2-c2cc4ccnc(N[C@@H]5CCc6ncccc65)c4s2)S(=O)(=O)CC3C(C)C)o1` (stereo partly drawn) [Compound 115, N—(R)-4-aza-1-indanyl(2-[3-isopropyl-6-(5-methyl-1,3,4-oxadiazol-2-yl)-5-(2-(3-oxabicyclo[3.1.0]hex-6-yl)ethyl}-1,1-dioxo-1λ^6-thia-4-aza-7-indanyl]-1-thia-6-aza-7-indenyl}amine]?
EC50 [1]: 305 nM; EC50 [2]: 14.5 nM
